# Test results: patent US20230406847A1, “LIGANDS OF PROSTATE SPECIFIC MEMBRANE ANTIGEN (PSMA) CONTAINING HETEROAROMATIC LINKER BUILDING BLOCKS” (ABX ADVANCED B[…] GMBH, priority 2020, published 2023)
# Tested on: human PSMA+ LNCaP cells
# Experiment: Internalization of radiolabelled compounds in LNCaP cells
# Format: cell-based
# Conditions: 0.75 h, 0.03 µM
# Procedure: Gallium labeling was carried out using 90 μL HEPES in water (580 mg/mL; ultrapure-grade, Merck, Darmstadt, Germany) mixed with 40 μL of [^68Ga]GaCl3. The pH of the mixture was adjusted to 3.8 to 4.1 with NaOH (30%; ultrapure-grade, Merck, Darmstadt, Germany). Subsequently 1.0 nmol of a synthesized compound of Example 3 to 10 was added and incubated at 98 ° C. for 10 to 15 minutes. For the competitive cell assay, the precursor amount was diminished to 0.5 nmol.
# Lutetium labelling was carried out using 115 μL of sodium acetate buffer (400 mM, pH mixed with 10 to 20 MBq [177Lu]LuCl3. Subsequently, 1.0 nmol of a synthesized compound of Example 3 to 10 was added and incubated at 98 ° C. for 20 to 25 minutes.
# Cell binding studies were performed using human PSMA+ LNCaP cells (ATCC CRL-1740) cultured in RPMI 1640 medium supplemented with 10% fetal bovine serum (Sera plus, PAN Biotech) and 2 mmol/l stable glutamine (PAN Biotech). Cells were grown at 37° C. in an incubator with humidified air and 5% CO2. Trypsin/EDTA 0.5%/0.02% in PBS (PAN Biotech) was used to harvest cells.
# 1×10^5 LNCaP cells were seeded in poly-L-lysine coated 24-well-plates for 24 h at 37° C. humidified air with 5% CO2. After removing the medium, cells were incubated with radiolabelled compounds of Example 11 (30 nM) for 45 minutes at 37° C. and at 4° C. respectively. For determination of specific cell uptake, cells were blocked with PMPA (Tocris) at a concentration of 500 μM. The cells were washed three times with 1 ml ice-cold PBS, twice with 500 μl glycine-HCl (50mM; pH 2.8) for 5 min at rt to remove the surface-bound radioactivity and with 1 ml ice-cold PBS. Subsequent the cells were lysed with 0.5 ml 0.3M NaOH. The internalized and the surface-bound fractions were measured in a gammacounter.
row,SMILES,internalisation rate (%)
1,"O=C(O)CC[C@H](NC(=O)N[C@@H](CCCCNC(=O)[C@H](Cc1ccc2ccccc2c1)NC(=O)[C@H]1CC[C@H](CNC(=O)CN2CCN(CC(=O)O)CCN(CC(=O)O)CCN(CC(=O)O)CC2)CC1)C(=O)O)C(=O)O [PSMA-617, (3S,10S,14S)-3-[(naphthalen-2-yl)methyl]-1,4,12-trioxo-1-[(1R,4S)-4-[[2-[4,7,10-tris(carboxymethyl)-1,4,7,10-etraazacyclododecan-1-yl]acetamido]methyl]cyclo-hexyl]-2,5,11 ,13-tetraazahexadecane-10,14,16-tricarboxylic acid, reference compound]",31.1%

# Same assay, conditions: radiolabelled compounds (30 nM), 45 minutes, 37° C. and 4° C., LNCaP cells, specific uptake by blocking with PMPA 500 μM
row,SMILES,internalisation rate (%)
1,Cc1nc(CNC(=O)CN2CCN(CC(=O)O)CCN(CC(=O)O)CCN(CC(=O)O)CC2)sc1C(=O)N[C@@H](Cc1ccc2ccccc2c1)C(=O)NCCCC[C@H](NC(=O)N[C@@H](CCC(=O)O)C(=O)O)C(=O)O [Example ABX271],37.8%
2,O=C(O)CC[C@H](NC(=O)N[C@@H](CCCCNC(=O)[C@H](Cc1ccc2ccccc2c1)NC(=O)c1ccc(CNC(=O)CN2CCN(CC(=O)O)CCN(CC(=O)O)CCN(CC(=O)O)CC2)s1)C(=O)O)C(=O)O [Example ABX272],41.4%
3,O=C(O)CC[C@H](NC(=O)N[C@@H](CCCCNC(=O)[C@H](Cc1ccc2ccccc2c1)NC(=O)c1cc(CNC(=O)CN2CCN(CC(=O)O)CCN(CC(=O)O)CCN(CC(=O)O)CC2)on1)C(=O)O)C(=O)O [Example ABX288],33.2%
4,O=C(O)CC[C@H](NC(=O)N[C@@H](CCCCNC(=O)[C@H](Cc1ccc2ccccc2c1)NC(=O)c1ccc(CNC(=O)CN2CCN(CC(=O)O)CCN(CC(=O)O)CCN(CC(=O)O)CC2)nc1)C(=O)O)C(=O)O [Example ABX289],55.7%
5,O=C(O)CC[C@H](NC(=O)N[C@@H](CCCCNC(=O)[C@H](Cc1csc2ccccc12)NC(=O)c1cc(CNC(=O)CN2CCN(CC(=O)O)CCN(CC(=O)O)CCN(CC(=O)O)CC2)on1)C(=O)O)C(=O)O [Example ABX338],40.8%
6,O=C(O)CC[C@H](NC(=O)N[C@@H](CCCCNC(=O)[C@H](Cc1ccc2ccccc2c1)NC(=O)c1cc(CNC(=O)[C@H](CCCCNc2ccc([N+](=O)[O-])cc2[N+](=O)[O-])NC(=O)CN2CCN(CC(=O)O)CCN(CC(=O)O)CCN(CC(=O)O)CC2)on1)C(=O)O)C(=O)O [Example ABX339],60.6%
7,O=C(O)CC[C@H](NC(=O)N[C@@H](CCCCNC(=O)[C@H](Cc1csc2ccccc12)NC(=O)c1cc(CNC(=O)[C@H](CCCCNc2ccc([N+](=O)[O-])cc2[N+](=O)[O-])NC(=O)CN2CCN(CC(=O)O)CCN(CC(=O)O)CCN(CC(=O)O)CC2)on1)C(=O)O)C(=O)O [Example ABX341],61.3%
8,O=C(O)CC[C@H](NC(=O)N[C@@H](CCCCNC(=O)[C@H](Cc1csc2ccccc12)NC(=O)c1cc(CNC(=O)[C@H](CCCCNC(=O)c2ccc(I)cc2)NC(=O)CN2CCN(CC(=O)O)CCN(CC(=O)O)CCN(CC(=O)O)CC2)on1)C(=O)O)C(=O)O [Example ABX346],46.7%
